By MIC is commonly meant the least concentration at which growth counts as inhibited. Broadly, the AUC(0-inf) is total exposure, with the tail of the curve extrapolated. A word on the Cmax: it is the peak of the concentration-time curve. As usually defined, the Tmax is the time from dosing to the highest level. By half-life is commonly meant the time needed for the level to fall by half in the phase considered. A high value points to slow loss.

From patent US20180282279A1, “Pantothenamide Analogues” (Radboud Universitair Medisch Centrum, priority 2014, published 2018) come the findings set out here.

Entries after “also recorded” stand apart in the source; their conditions may differ.

The subject of data set [1] is Escherichia coli. In words: Bacterial growth assay and MIC determination, E. coli. The format is cell-based. The conditions noted are these: Escherichia coli, serum −, read-out: MIC. Here is the method: Strains of Escherichia coli, Staphylococcus aureus and Staphylococcus epidermidis, were grown overnight in 1% Bacto tryptone medium (BD, Sparks, Md.). Streptococcus pyogenes was grown overnight in Bacto Todd Hewitt Broth medium (BD, Sparks, Md.). Cultures were then diluted 1:1,000 in fresh assay medium supplemented with or without 20% fetal bovine serum (FBS; HyClone, Celbio, Logan, Utah) and added to 96-well sterile enzyme-linked immunosorbent assay (ELISA) plates (100 μl per well). The compounds to be tested were diluted in the medium without serum and added to the bacteria (100 μl per well). Plates were incubated at 37° C., and bacterial growth was monitored over time by reading the optical density at 490 nm using a microplate reader (model 450; Bio-Rad Laboratories Inc., Hercules, Calif.). Streptococcus pneumoniae strains were grown to mid-log phase (OD620 of 0.3) and stored in 15% glycerol at […] till further use. Minimal inhibitory concentration (MIC) of antibiotics was determined according to standard procedures. Bacteria were diluted 10-fold in Mueller-Hinton medium (BD, Sparks, Md.) and added to 96-well sterile ELISA plates (150 μl per well). The compounds to be tested were diluted in the medium without serum and added to the bacteria (150 μl per well). Plates were incubated overnight at 37° C. in 5% CO2. The MIC was defined as the lowest concentration of compound at which no growth was visible with the naked eye.

Data set [2] concerns fetal bovine serum as a source of pantetheinase activity. Put plainly: Stability in vitro in fetal bovine serum (LC-MS). The format is in vitro ADME. The method, then:
FIG. 1: Inverted amides are stable in serum. The stability of pantothenamide CXP18.3-002 (A-C) and its corresponding inverted amide CXP18.6-006 (D-F) was measured using LC-MS analysis after overnight incubation in buffer (A and D), buffer with 10% fetal bovine serum (B and E) and buffer with 10% FBS supplemented with the vanin inhibitor RR6 (C-F). Fetal bovine serum contains a high level of vanin (pantetheinase) activity. Both compounds are stable after incubation in buffer alone (figure A and D). The small peaks in the amine channels, with molecular masses of 163 (A) en 191 (D), are either the result of disruption of compound during ionization (CXP18.3-002-sample) or background from the buffer (CXP18.6-006-sample). […] Explanation of masses and compounds: CXP18.3-002, exact mass 322.189, found at mass 305 (—H2O (18)+H^+(1)). Amine from CXP18.3-002, exact mass 121.089, found at 163 (+ACN(41) +H^+(1)). Pantothenic acid, exact mass 219.111, found at mass 220 (+H^+(1)). RR6, exact mass 293.163, found at 294 (+H^+(1)). CXP18.6-006, exact mass 322.189, found at mass 305 (—H2O (18) +H^+(1)). Amine from CXP18.6-006, exact mass 150.068, found at 151 (+H^+(1)).
Conventional pantothenamides are hydrolysed by pantetheinases in body fluids as shown before (Jansen et al 2013) thereby losing their antimicrobial activity (Jansen et al 2013, Spry et al 2013, PLoS One 8:e54974). Bioisosteric pantothenamides retained their in vitro antimicrobial activity in the presence of serum, as will be shown in the next examples. To examine the stability of analogues in vitro, CXP18.3-002 and its bioisostere CXP18.6-006 were incubated for 16 h at room temperature in PBS with 10% fetal bovine serum as a source of pantetheinase activity. Samples were taken and analyzed by LC-MS using a Shimadzu LC10ATvp HPLC coupled to a Shimadzu LCMS2010 A mass spectrometer. […] The hydrolysis of the pantothenamides by fetal bovine serum could be inhibited by the addition of RR6, a potent inhibitor of pantetheinase activity, as described before (Jansen en al 2013).

Data set [3] in a line: Pharmacokinetic study in rats. The format is in vivo. The conditions noted are these: rat, blood, 50 mg/kg in saline, oral administration. Here is the method:
To address the question if increased stability would also lead to improved bioavailability in vivo, a pharmacokinetic study was performed. Briefly, the pantothenamides N5-Pan (an antibacterial compound) and CXP18.3-002 (an antimalarial compound), and their corresponding inverted amides CXP18.6-013 and CXP18.6-006 were administered to rats at 50 mg/kg dissolved in saline. Blood samples were collected from 3 rats before the experiment and at 0.25, 0.5, 1, 2, 4, 6, 8, 12 and 24 h. The concentrations of the compounds were analyzed by LC-MS/MS (AB Sciex API-4000 system). Data were analyzed by the Non-compartmental analysis tool of Phoenix WinNonlin (Version 6.3).

For the molecule `CC(C)(CO)[C@@H](O)C(=O)NCCNC(=O)CCc1ccccc1F` [CXP18.6-017], in data set [1], the MIC is > 256 µg/mL.
In the case of `CC(C)(CO)[C@@H](O)C(=O)NCCNC(=O)CCc1ccccc1` [CXP18.6-006], the “stability in buffer with 10% fetal bovine serum” value in data set [2] (PBS with 10% FBS, 16 h (overnight), room temperature) was “remains intact; also recorded: No appreciable degradation”. Moreover, the “stability after overnight incubation in buffer” value in data set [2] (buffer alone) was “stable”. Moreover, the “stability in buffer with 10% FBS supplemented with the vanin inhibitor RR6” value in data set [2] (overnight) was “had no effect”. In addition, in data set [3], the AUC(0-inf) was found to be 6620 ng·h/mL, the highest level (Cmax) was 3360 ng/mL and the Tmax amounted to 0.33 h. Besides, the half-life in data set [3] (elimination phase) is 3.6 h.
